According to US11477982B2, “2-amino-5-oxyalkyl-pyrimidine derivatives and their use for controlling undesired plant growth” (Bayer CropScience Aktiengesellschaft, priority 2017, dated 2022):

Columns and labels:
Assay type in all cases: in vivo
[1] = tested on: AMARE: Amaranthus retroflexus; experiment: Post-emergence herbicidal effect
Method in brief: (§1)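 Weeds grown in sandy loam in a greenhouse and treated at the one-leaf stage, 2 to 3 weeks after sowing. Compounds formulated as WP or EC were sprayed with 0.5% additive at 600 l/ha water. Activity rated visually against untreated controls after about 3 weeks (100% = plants dead, 0% = like controls).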

[2] = tested on: AVEFA: Avena fatua; experiment: Post-emergence herbicidal effect
Method in brief: as §1

[3] = tested on: ECHCG: Echinochloa crus-galli; experiment: Post-emergence herbicidal effect
Method in brief: as §1

[4] = tested on: SETVI: Setaria viridis; experiment: Post-emergence herbicidal effect
Method in brief: as §1

[5] = tested on: ALOMY: Alopecurus myosuroides; experiment: Post-emergence herbicidal effect
Method in brief: as §1

[6] = tested on: ABUTH: Abutilon theophrasti; experiment: Post-emergence herbicidal effect
Method in brief: as §1

[7] = tested on: LOLRI: Lolium rigidum; experiment: Post-emergence herbicidal effect
Method in brief: as §1

[8] = tested on: STEME: Stellaria media; experiment: Post-emergence herbicidal effect
Method in brief: as §1

[9] = tested on: POLCO: Polygonum convolvulus; experiment: Post-emergence herbicidal effect
Method in brief: as §1

[10] = tested on: VERPE: Veronica persica; experiment: Post-emergence herbicidal effect; conditions: dosage 320 g/ha
Method in brief: as §1

[11] = tested on: PHBPU: Ipomoea purpurea; experiment: Post-emergence herbicidal effect; conditions: dosage 80 g/ha
Method in brief: as §1

[12] = tested on: VIOTR: Viola tricolor; experiment: Post-emergence herbicidal effect; conditions: dosage 320 g/ha
Method in brief: as §1

[13] = tested on: MATIN: Matricaria inodora; experiment: Pre-emergence herbicidal effect; conditions: pre-emergence; dosage 320 g/ha
Method in brief: (§2)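 Compounds applied before emergence onto soil over sown seeds (WP or EC, 0.5% additive, 600 l/ha water); greenhouse culture about 3 weeks, then percent activity judged by eye against untreated plants.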

[14] = tested on: POLCO: Polygonum convolvulus; experiment: Pre-emergence herbicidal effect; conditions: dosage 320 g/ha
Method in brief: as §2

[15] = tested on: AMARE: Amaranthus retroflexus; experiment: Pre-emergence herbicidal effect; conditions: pre-emergence; dosage 320 g/ha
Method in brief: as §2

[16] = tested on: VERPE: Veronica persica; experiment: Pre-emergence herbicidal effect; conditions: dosage 320 g/ha
Method in brief: as §2

[17] = tested on: VIOTR: Viola tricolor; experiment: Pre-emergence herbicidal effect; conditions: dosage 320 g/ha
Method in brief: as §2

[18] = tested on: STEME: Stellaria media; experiment: Pre-emergence herbicidal effect; conditions: pre-emergence; dosage 320 g/ha
Method in brief: as §2

[19] = tested on: ECHCG: Echinochloa crus-galli; experiment: Pre-emergence herbicidal effect; conditions: pre-emergence; dosage 320 g/ha
Method in brief: as §2

[20] = tested on: PHBPU: Ipomoea purpurea; experiment: Pre-emergence herbicidal effect; conditions: dosage 320 g/ha
Method in brief: as §2

[21] = tested on: SETVI: Setaria viridis; experiment: Pre-emergence herbicidal effect; conditions: pre-emergence; dosage 320 g/ha
Method in brief: as §2

[22] = tested on: ALOMY: Alopecurus myosuroides; experiment: Pre-emergence herbicidal effect; conditions: pre-emergence; dosage 320 g/ha
Method in brief: as §2

[23] = tested on: ABUTH: Abutilon theophrasti; experiment: Pre-emergence herbicidal effect; conditions: dosage 320 g/ha
Method in brief: as §2

[24] = tested on: LOLRI: Lolium rigidum; experiment: Pre-emergence herbicidal effect; conditions: dosage 320 g/ha
Method in brief: as §2

[25] = tested on: HORMU: Hordeum murinum; experiment: Pre-emergence herbicidal effect; conditions: pre-emergence; dosage 320 g/ha
Method in brief: as §2

[26] = tested on: AVEFA: Avena fatua; experiment: Pre-emergence herbicidal effect; conditions: dosage 320 g/ha
Method in brief: as §2

Row | Compound | Herbicidal action against ECHCG ([3]; dosage 320 g/ha) [%] | Herbicidal action against AMARE ([1]; dosage 320 g/ha) [%] | Herbicidal action against SETVI ([4]; dosage 320 g/ha) [%] | Herbicidal action against STEME ([8]; dosage 320 g/ha) [%] | Herbicidal action against VERPE [10] [%] | Herbicidal action against ABUTH ([6]; dosage 320 g/ha) [%] | Herbicidal action against VIOTR [12] [%] | Herbicidal action against MATIN [13] [%] | Herbicidal action against POLCO [14] [%] | Herbicidal action against AMARE [15] [%] | Herbicidal action against VERPE [16] [%] | Herbicidal action against VIOTR [17] [%] | Herbicidal action against STEME [18] [%] | Herbicidal action against ECHCG [19] [%] | Herbicidal action against PHBPU [20] [%] | Herbicidal action against SETVI [21] [%] | Herbicidal action against ALOMY [22] [%] | Herbicidal action against ABUTH [23] [%] | Herbicidal action against LOLRI [24] [%] | Herbicidal action against HORMU [25] [%] | other results
1 | Cc1ccc2c(c1)[C@H](Nc1ncc([C@H](C)O)c(N)n1)[C@@H](C)C2 (racemic) [drawing 11, reference compound] |  |  |  |  |  |  |  |  |  |  |  |  |  |  |  |  |  |  |  |  | Herbicidal action against AMARE ([1]; dosage 80 g/ha): 80%; Herbicidal action against AVEFA ([2]; dosage 80 g/ha): 0%; Herbicidal action against AVEFA ([2]; dosage 320 g/ha): 50%
2 | Cc1ccc2c(c1)[C@H](Nc1ncc(C(C)(C)O)c(N)n1)[C@@H](C)C2 [drawing 10, reference compound] | 10 | 70 | 30 |  |  |  |  |  |  |  |  |  |  |  |  |  |  |  |  |  | Herbicidal action against ECHCG ([3]; dosage 80 g/ha): 0%; Herbicidal action against AMARE ([1]; dosage 80 g/ha): 60%; Herbicidal action against SETVI ([4]; dosage 80 g/ha): 0%; Herbicidal action against ALOMY ([5]; dosage 80 g/ha): 0%; Herbicidal action against ALOMY ([5]; dosage 320 g/ha): 10%; Herbicidal action against ABUTH ([6]; dosage 80 g/ha): 30%; Herbicidal action against LOLRI ([7]; dosage 80 g/ha): 0%; Herbicidal action against LOLRI ([7]; dosage 320 g/ha): 0%; Herbicidal action against AVEFA ([2]; dosage 320 g/ha): 0%
3 | Cc1ccc2c(c1)[C@H](Nc1ncc(C(C)O)cn1)[C@@H](C)C2 (some centres unmarked) [Example 1.2] | 100 | 100 | 90 | 100 | 90 | 80 | 80 | 100 | 100 | 100 | 100 | 100 |  |  |  |  |  |  |  |  | Herbicidal action against STEME ([8]; dosage 80 g/ha): 90%; Herbicidal action against ECHCG ([3]; dosage 80 g/ha): 40%; Herbicidal action against POLCO ([9]; dosage 80 g/ha): 90%; Herbicidal action against POLCO ([9]; dosage 320 g/ha): 90%; Herbicidal action against AMARE ([1]; dosage 80 g/ha): 100%; Herbicidal action against PHBPU [11]: 40%; Herbicidal action against SETVI ([4]; dosage 80 g/ha): 90%; Herbicidal action against AVEFA ([2]; dosage 80 g/ha): 60%; Herbicidal action against AVEFA ([2]; dosage 320 g/ha): 80%
4 | CCC(C)(O)c1cnc(N[C@H]2c3cc(C)ccc3C[C@@H]2C)nc1 (some centres unmarked) [Example 1.14] | 100 | 100 | 90 | 100 | 90 | 90 | 90 | 100 | 100 | 100 | 100 | 100 | 100 | 100 | 100 | 100 | 100 | 100 | 100 | 100 | Herbicidal action against AVEFA [26]: 100%
5 | CCc1ccc2c(c1)[C@H](Nc1ncc(C(C)O)c(C)n1)CC2 (some centres unmarked) [Example 1.50] | 100 | 90 | 90 | 100 | 90 | 80 | 90 | 100 | 100 | 100 | 100 | 100 | 100 | 100 | 100 | 100 | 100 | 100 | 100 | 90 | Herbicidal action against AVEFA [26]: 100%
6 | Cc1ccc2c(c1)[C@H](Nc1ncc(C(C)(C)O)cn1)CC2 [Example 1.5] | 100 | 100 | 90 | 100 | 90 | 100 | 90 | 100 | 100 | 100 | 100 | 100 | 100 | 100 | 100 | 100 | 100 | 100 | 100 | 100 | Herbicidal action against AVEFA [26]: 100%
7 | Cc1nc(N[C@@H]2CCc3ccccc32)ncc1C(C)(C)O [Example 1.54] | 100 | 90 | 80 | 90 | 90 | 80 | 90 | 100 | 100 | 100 | 100 | 100 | 100 | 100 | 100 | 100 | 100 | 100 | 100 | 100 | Herbicidal action against AVEFA [26]: 80%
8 | CC#CC(C)(O)c1cnc(N[C@H]2c3cc(C)ccc3C[C@@H]2C)nc1 (some centres unmarked) [Example 1.22] | 100 | 90 | 100 | 90 | 90 | 90 | 90 | 100 | 100 | 100 | 100 | 100 | 100 | 100 | 100 | 100 | 100 | 100 | 100 | 100 | Herbicidal action against AVEFA [26]: 100%
9 | C#CC(C)(O)c1cnc(N[C@H]2c3cc(C)ccc3C[C@@H]2C)nc1 (some centres unmarked) [Example 1.18] | 100 | 90 | 90 | 100 | 100 | 90 | 90 | 100 | 100 | 100 | 100 | 100 | 100 | 100 | 100 | 100 | 100 | 100 | 100 | 100 | Herbicidal action against AVEFA [26]: 100%
10 | Cc1ccc2c(c1)[C@H](Nc1ncc(C(C)(C)O)c(N)n1)[C@@H](C)C2 [drawing 9, reference compound] | 10 | 70 | 30 |  |  |  |  |  |  |  |  |  |  |  |  |  |  |  |  |  | Herbicidal action against ECHCG ([3]; dosage 80 g/ha): 0%; Herbicidal action against ALOMY ([5]; dosage 80 g/ha): 0%; Herbicidal action against ALOMY ([5]; dosage 320 g/ha): 10%; Herbicidal action against ABUTH ([6]; dosage 80 g/ha): 30%; Herbicidal action against LOLRI ([7]; dosage 80 g/ha): 0%; Herbicidal action against LOLRI ([7]; dosage 320 g/ha): 0%; Herbicidal action against AVEFA ([2]; dosage 80 g/ha): 0%; Herbicidal action against AVEFA ([2]; dosage 320 g/ha): 0%
